In paper PMC8217011, “Natural brominated phenoxyphenols kill persistent and biofilm-incorporated cells of MRSA and other pathogenic bacteria” (Applied Microbiology and Biotechnology, 2020):
Where “and” joins values, the source holds several entries; their conditions need not be identical. Equal entries are not always repeated.

Experiments:
A. baumannii ATCC 747 = assay: Killing kinetics, replicating cells; type: cell-based; settings: 2-bromo-PP 3.125 µM, 3-bromo-PP 6.25 µM; multidrug-resistant Acinetobacter baumannii as worded
Description: 39 Figure S2 – Bactericidal effects of 2-bromo-PP and 3-bromo-PP against replicating
40 cells of A. baumannii ATCC 747. Colistin was used as positive control (3.125 µM). 2-
41 bromo-PP and 3-bromo-PP were used at concentrations of 3.125 µM and 6.25 µM,
42 respectively. The limit of detection was 500 CFU/mL.
(1 picture or pasted object on this page, not shown here)

[1] = system: S. aureus mutant M1 (parental strain ATCC 25923); assay: MIC of spontaneously resistant mutant; type: cell-based, Staphylococcus aureus; settings: for MIC90: Staphylococcus aureus, ATCC25923
Description: (§1) The minimal inhibitory concentration (MIC) has been determined according to the CSLI guidelines (CLSI [2012]). Briefly, in a sterile polystyrene U-bottom 96-well plate, a 2-fold serial dilution ranging from 100 to 0.78 μM of testing compounds has been prepared in 50 μL MHB. A freshly inoculated S. aureus culture was grown until OD600 nm of approx. 0.6 and diluted to 10^6 CFU/mL in MHB. Finally, 50 μL of the latter cell suspension was added to each well and then incubated statically for 18–24 h at 37 °C. MIC was determined using BacTiterGlo ATP assay (Promega, Madison, WI, USA) and Tecan Infinite F200 Pro (Tecan, Männedorf, Switzerland). Moxifloxacin and DMSO were used as positive and negative control, respectively. Sublethal concentrations of colistin (0.1 μM) were used in some experiments to increase the permeability of the gram-negative cell envelope for compound testing. For E. cloacae, a broth microdilution assay was performed using a serial 2-fold dilution in 96-well flat-bottomed plates (Falcon, BD Bioscience, Heidelberg) of both PPs in broth LB medium (Roth, Karlsruhe) at a concentration range of 50–0.024 μM.
(§2) Spontaneous resistant mutants have been generated with 2-bromo-PP and 3-bromo-PP to further investigate the mechanism of antibacterial action and resistance. Since isolation of spontaneous resistant mutants in one step was not successful on solid media containing 2-bromo-PP or 3-bromo-PP (i.e. resistance frequency < 10^−7 at 5-fold MIC), enrichment was done by passaging bacteria daily in liquid media containing increasing sublethal concentrations of PPs. […] Moreover, we observed cross-resistance between PPs since 2-bromo-PP-resistant mutants were also resistant against 3-bromo-PP and vice versa (Fig. 4a; Table 2).

[2] = system: S. aureus mutant M4 (parental strain Mu50); assay: MIC of spontaneously resistant mutant; type: cell-based, Staphylococcus aureus; settings: for MIC90: Staphylococcus aureus
Description: as §1, §2

preformed MRSA biofilms = assay: Biofilm integrity (crystal violet staining, Alcian blue fluorescence microscopy); type: cell-based, Staphylococcus aureus
Description: Viability was measured as described above utilizing the Resazurin reduction assay. Biofilm formation was measured using crystal violet staining as described elsewhere (Christensen et al. [1985]; Stepanovic et al. [2007]). Briefly, biofilms were washed three times with PBS and allowed to air dry before 0.1% (v/v) crystal violet solution (Waldeck GmbH & Co., Münster, Germany) was added to each well. The biofilms were stained for 15 min at room temperature (RT). Afterwards, the plates were washed three times again with PBS, and 30% acetic acid was added for 30 min at RT to solubilise the dye. Finally, 100 μL was transferred to a fresh 96-well plate to measure absorption at 600 nm with a plate reader.
Biofilms were pre-grown as described above. Alcian blue staining was performed to stain the EPS. A 1% Alcian blue staining solution was prepared in 3% glacial acetic acid. Staining solution was added to the biofilm in sufficient amount to cover the whole biofilm and incubated for 30 min at RT. Next, the biofilm was washed twice with PBS, and 200 μL 10% formalin solution was added. Fluorescence microscopy was performed using a Nikon Eclipse TS100 fluorescence microscope.

[3] = system: MRSA vector control strain harbouring empty plasmid pLA03; assay: MIC in recombinant strain, empty vector control; type: cell-based; settings: Staphylococcus aureus
Description: To corroborate the role as potential determinants of resistance, mtlA and tetR were overexpressed under control of an anhydrotetracycline (Atc)-inducible promoter, and the effect on sensitivity toward 3-bromo-PP was analysed (Fig. 4e). […] However, induction of mtlA or tetR expression in the presence of Atc strongly rendered the cells more susceptible to 3-bromo-PP resulting in MICs of 0.019 μM for mtlA and 0.078 μM for tetR overexpression, respectively. This translates into a […] and 8-fold increased sensitivity during mtlA or tetR overexpression, respectively, compared with the empty vector control (Fig. 4e).

Structure (SMILES) | bactericidal effect against replicating cells (A. baumannii ATCC 747) | MIC90 [1] | MIC90 [2] | biofilm integrity / dispersal (preformed MRSA biofilms) | MIC shift against 3-bromo-PP ([1]; mutant M1 raised against 2-bromo-PP, vs parental strain) [×] | MIC shift against 3-bromo-PP ([2]; mutant M4 raised against 3-bromo-PP, vs parental strain Mu50) [×] | MIC [3] [µM]
Oc1c(Br)cc(Br)cc1Oc1ccc(Br)cc1Br [2-bromo-PP, 4,6-dibromo-2-(2′,4′-dibromophenoxy)phenol] | comparable bactericidal effect | 1.56 µM and 0.78 µg/mL | 1.56 µM and 0.78 µg/mL | Neither 2-bromo-PP (light blue triangle) nor 3-bromo-PP (blue inverted triangle) disperse biofilms | – | – | –
Oc1c(Br)cc(Br)c(Br)c1Oc1ccc(Br)cc1Br [3-bromo-PP, 3,4,6-tribromo-2-(2′,4′-dibromophenoxy)phenol] | comparable bactericidal effect | 3.12 µM and 1.81 µg/mL | 3.12 µM and 1.81 µg/mL | Neither 2-bromo-PP (light blue triangle) nor 3-bromo-PP (blue inverted triangle) disperse biofilms | 4 | 32 | ~0.625
